# Reference: article PMC6152983, “An amine oxidase gene from mud crab, Scylla paramamosain, regulates the neurotransmitters serotonin and dopamine in vitro” (PLoS ONE, 2018)
# Target: T1, SpAMO (Scylla paramamosain, UniProt A0A3G2KVP6)
# T1 sequence (A0A3G2KVP6 2-506): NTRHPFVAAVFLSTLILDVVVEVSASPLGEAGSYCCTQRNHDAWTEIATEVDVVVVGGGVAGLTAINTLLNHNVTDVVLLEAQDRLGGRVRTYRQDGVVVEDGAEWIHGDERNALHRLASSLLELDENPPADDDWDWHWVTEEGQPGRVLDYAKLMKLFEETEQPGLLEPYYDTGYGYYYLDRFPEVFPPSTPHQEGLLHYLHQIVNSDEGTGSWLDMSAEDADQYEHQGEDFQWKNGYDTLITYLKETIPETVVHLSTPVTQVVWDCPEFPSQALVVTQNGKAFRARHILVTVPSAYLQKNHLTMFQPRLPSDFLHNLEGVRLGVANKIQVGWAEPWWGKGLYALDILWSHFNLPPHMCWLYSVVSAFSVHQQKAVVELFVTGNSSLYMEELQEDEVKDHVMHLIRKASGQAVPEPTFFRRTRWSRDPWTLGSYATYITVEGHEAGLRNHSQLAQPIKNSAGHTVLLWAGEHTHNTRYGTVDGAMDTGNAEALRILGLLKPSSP
# Test: luminol/horseradish peroxidase chemiluminescence of H2O2
# Assay type: biochemical
# Conditions: glycine buffer pH 8.0, 37 °C; 50 μL of 1.5 mmol/L substrate
smiles,measurement,value
NCCc1ccc(O)c(O)c1 [dopamine],luminol/horseradish peroxidase chemiluminescence of H2O2,oxidative deamination of 5-HT and DA by SpAMO was significantly stronger
